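Where inhibition never reached the appropriate level, the endpoint shown equals the highest concentration tested. Otherwise, values were interpolated linearly from a five-concentration, 48-hour dose response in 96-well plates. TGI: total growth inhibition.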
Columns and labels:
Assay in all cases: growth of human tumour cells (NCI), 48 h
RPMI-8226 leukemia = system: RPMI-8226 leukemia
SF-539 CNS = system: SF-539 CNS
BT-549 breast = system: BT-549 breast
HCT-15 colon = system: HCT-15 colon
MDA-MB-435 = system: MDA-MB-435
NCI-H460 lung = system: NCI-H460 lung
UACC-62 melanoma = system: UACC-62 melanoma
RXF 393 renal = system: RXF 393 renal
OVCAR-3 ovarian = system: OVCAR-3 ovarian
OVCAR-8 ovarian = system: OVCAR-8 ovarian
SK-MEL-2 melanoma = system: SK-MEL-2 melanoma
HCC-2998 colon = system: HCC-2998 colon
PC-3 prostate = system: PC-3 prostate
HS 578T breast = system: HS 578T breast
NCI/ADR-RES ovarian = system: NCI/ADR-RES ovarian
TK-10 renal = system: TK-10 renal
SNB-75 CNS = system: SNB-75 CNS
OVCAR-5 ovarian = system: OVCAR-5 ovarian
K-562 leukemia = system: K-562 leukemia
EKVX NSCLC = system: EKVX NSCLC
CAKI-1 renal = system: CAKI-1 renal
SN12C renal = system: SN12C renal
MDA-N = system: MDA-N
MCF7 breast = system: MCF7 breast
T-47D breast = system: T-47D breast
SK-MEL-28 melanoma = system: SK-MEL-28 melanoma
HT29 colon = system: HT29 colon
NCI-H23 lung = system: NCI-H23 lung
MOLT-4 leukemia = system: MOLT-4 leukemia
HOP-62 NSCLC = system: HOP-62 NSCLC
SK-MEL-5 melanoma = system: SK-MEL-5 melanoma
HOP-92 NSCLC = system: HOP-92 NSCLC
A549 NSCLC = system: A549 NSCLC
ACHN renal = system: ACHN renal
786-0 renal = system: 786-0 renal
A498 renal = system: A498 renal
MALME-3M melanoma = system: MALME-3M melanoma
SW-620 colon = system: SW-620 colon
NCI-H226 lung = system: NCI-H226 lung
SNB-19 CNS = system: SNB-19 CNS
UACC-257 melanoma = system: UACC-257 melanoma
CCRF-CEM leukemia = system: CCRF-CEM leukemia
IGROV1 ovarian = system: IGROV1 ovarian
UO-31 renal = system: UO-31 renal
SF-268 CNS = system: SF-268 CNS
M14 melanoma = system: M14 melanoma
SR leukemia = system: SR leukemia
LOX IMVI melanoma = system: LOX IMVI melanoma
MDA-MB-231 breast = system: MDA-MB-231 breast
OVCAR-4 ovarian = system: OVCAR-4 ovarian
HL-60(TB) leukemia = system: HL-60(TB) leukemia
SK-OV-3 ovarian = system: SK-OV-3 ovarian
U251 CNS = system: U251 CNS
NCI-H522 lung = system: NCI-H522 lung
SF-295 CNS = system: SF-295 CNS
DU-145 prostate = system: DU-145 prostate
COLO 205 colon = system: COLO 205 colon
KM12 colon = system: KM12 colon
HCT-116 colon = system: HCT-116 colon

## COc1ccc2c(c1)CCCC(Br)C2=O (stereo unspecified)
RPMI-8226 leukemia
  TGI: 5.5 µM
SF-539 CNS
  TGI: > 19.9 µM
BT-549 breast
  TGI: 7.31 µM
HCT-15 colon
  TGI: 12.7 µM
MDA-MB-435
  TGI: 5.99 µM
NCI-H460 lung
  TGI: 10.5 µM
UACC-62 melanoma
  TGI: 8.88 µM
RXF 393 renal
  TGI: 17.7 µM
OVCAR-3 ovarian
  TGI: 37.7 µM
OVCAR-8 ovarian
  TGI: > 31.9 µM
SK-MEL-2 melanoma
  TGI: 4.36 µM
HCC-2998 colon
  TGI: > 100 µM
PC-3 prostate
  TGI: 16.7 µM
HS 578T breast
  TGI: > 94.3 µM
NCI/ADR-RES ovarian
  TGI: > 29.9 µM
TK-10 renal
  TGI: 16.8 µM
SNB-75 CNS
  TGI: 27.9 µM
OVCAR-5 ovarian
  TGI: 20.8 µM
K-562 leukemia
  TGI: 18.7 µM
EKVX NSCLC
  TGI: 37.2 µM
CAKI-1 renal
  TGI: 9.45 µM
SN12C renal
  TGI: 9.13 µM
MDA-N
  TGI: 9.21 µM
MCF7 breast
  TGI: 15.1 µM
T-47D breast
  TGI: > 100 µM
SK-MEL-28 melanoma
  TGI: 23.3 µM
HT29 colon
  TGI: 20.2 µM
NCI-H23 lung
  TGI: 26.3 µM
MOLT-4 leukemia
  TGI: > 48.5 µM
HOP-62 NSCLC
  TGI: 33.4 µM
SK-MEL-5 melanoma
  TGI: 9.22 µM
HOP-92 NSCLC
  TGI: 23.3 µM
A549 NSCLC
  TGI: > 43.6 µM
ACHN renal
  TGI: 20.7 µM
786-0 renal
  TGI: > 30 µM
A498 renal
  TGI: 36.4 µM
MALME-3M melanoma
  TGI: 21.5 µM
SW-620 colon
  TGI: > 33.3 µM
NCI-H226 lung
  TGI: 5.92 µM
SNB-19 CNS
  TGI: 22.3 µM
UACC-257 melanoma
  TGI: 32.1 µM
CCRF-CEM leukemia
  TGI: 1.48 µM
IGROV1 ovarian
  TGI: 4.28 µM
UO-31 renal
  TGI: 4.71 µM
SF-268 CNS
  TGI: 12.5 µM
M14 melanoma
  TGI: 16.5 µM
SR leukemia
  TGI: 24.6 µM
LOX IMVI melanoma
  TGI: 3.04 µM
MDA-MB-231 breast
  TGI: 10.9 µM
OVCAR-4 ovarian
  TGI: 20.5 µM
HL-60(TB) leukemia
  TGI: 16.9 µM
SK-OV-3 ovarian
  TGI: 14.3 µM
U251 CNS
  TGI: 29.6 µM
NCI-H522 lung
  TGI: 0.837 µM
SF-295 CNS
  TGI: 17.2 µM
DU-145 prostate
  TGI: 44.9 µM
COLO 205 colon
  TGI: 10.9 µM
KM12 colon
  TGI: 12.8 µM

## N#Cc1nc2ccccc2nc1N1CCN(c2ccc([N+](=O)[O-])cc2)CC1
RPMI-8226 leukemia
  TGI: > 100 µM
BT-549 breast
  TGI: > 100 µM
HCT-15 colon
  TGI: > 100 µM
MDA-MB-435
  TGI: > 100 µM
NCI-H460 lung
  TGI: > 100 µM
UACC-62 melanoma
  TGI: > 100 µM
RXF 393 renal
  TGI: > 100 µM
OVCAR-8 ovarian
  TGI: > 100 µM
SK-MEL-2 melanoma
  TGI: > 100 µM
HCC-2998 colon
  TGI: > 100 µM
PC-3 prostate
  TGI: > 100 µM
HS 578T breast
  TGI: > 100 µM
NCI/ADR-RES ovarian
  TGI: > 100 µM
TK-10 renal
  TGI: > 100 µM
SNB-75 CNS
  TGI: > 100 µM
OVCAR-5 ovarian
  TGI: > 100 µM
HCT-116 colon
  TGI: > 100 µM
EKVX NSCLC
  TGI: > 100 µM
CAKI-1 renal
  TGI: > 100 µM
SN12C renal
  TGI: > 100 µM
MDA-N
  TGI: > 100 µM
MCF7 breast
  TGI: > 100 µM
T-47D breast
  TGI: > 100 µM
SK-MEL-28 melanoma
  TGI: > 100 µM
HT29 colon
  TGI: > 100 µM
NCI-H23 lung
  TGI: > 100 µM
MOLT-4 leukemia
  TGI: 1.05 µM
HOP-62 NSCLC
  TGI: > 100 µM
SK-MEL-5 melanoma
  TGI: > 100 µM
HOP-92 NSCLC
  TGI: > 100 µM
A549 NSCLC
  TGI: > 100 µM
ACHN renal
  TGI: > 100 µM
786-0 renal
  TGI: > 100 µM
A498 renal
  TGI: > 100 µM
MALME-3M melanoma
  TGI: > 100 µM
SW-620 colon
  TGI: > 100 µM
NCI-H226 lung
  TGI: > 100 µM
SNB-19 CNS
  TGI: > 100 µM
UACC-257 melanoma
  TGI: > 100 µM
CCRF-CEM leukemia
  TGI: > 100 µM
IGROV1 ovarian
  TGI: > 100 µM
UO-31 renal
  TGI: > 100 µM
SF-268 CNS
  TGI: > 100 µM
M14 melanoma
  TGI: > 100 µM
SR leukemia
  TGI: > 100 µM
LOX IMVI melanoma
  TGI: > 100 µM
MDA-MB-231 breast
  TGI: > 100 µM
OVCAR-4 ovarian
  TGI: > 100 µM
HL-60(TB) leukemia
  TGI: > 100 µM
SK-OV-3 ovarian
  TGI: > 100 µM
U251 CNS
  TGI: > 100 µM
NCI-H522 lung
  TGI: > 100 µM
SF-295 CNS
  TGI: > 100 µM
DU-145 prostate
  TGI: > 100 µM
COLO 205 colon
  TGI: > 100 µM
KM12 colon
  TGI: > 100 µM

## O=c1cnn(C/C=C/CBr)c(=O)[nH]1
RPMI-8226 leukemia
  TGI: 49.5 µM
SF-539 CNS
  TGI: 31.6 µM
BT-549 breast
  TGI: 19.4 µM
HCT-15 colon
  TGI: 39.2 µM
MDA-MB-435
  TGI: 33.7 µM
NCI-H460 lung
  TGI: 36.5 µM
RXF 393 renal
  TGI: 31.9 µM
OVCAR-3 ovarian
  TGI: 64.2 µM
OVCAR-8 ovarian
  TGI: 54 µM
SK-MEL-2 melanoma
  TGI: 42.2 µM
HCC-2998 colon
  TGI: 34.7 µM
PC-3 prostate
  TGI: 36.4 µM
HS 578T breast
  TGI: > 100 µM
NCI/ADR-RES ovarian
  TGI: 58.1 µM
SNB-75 CNS
  TGI: 33.4 µM
OVCAR-5 ovarian
  TGI: 31.2 µM
K-562 leukemia
  TGI: 70.6 µM
EKVX NSCLC
  TGI: 39.2 µM
CAKI-1 renal
  TGI: 25.6 µM
SN12C renal
  TGI: 41.6 µM
MDA-N
  TGI: 33.3 µM
MCF7 breast
  TGI: 36 µM
T-47D breast
  TGI: 57 µM
SK-MEL-28 melanoma
  TGI: 41.9 µM
HT29 colon
  TGI: 29.2 µM
MOLT-4 leukemia
  TGI: 50.1 µM
HOP-62 NSCLC
  TGI: 33.2 µM
SK-MEL-5 melanoma
  TGI: 26.6 µM
HOP-92 NSCLC
  TGI: 28.7 µM
A549 NSCLC
  TGI: 33.9 µM
ACHN renal
  TGI: 37.1 µM
A498 renal
  TGI: 31.7 µM
MALME-3M melanoma
  TGI: 32 µM
SW-620 colon
  TGI: 28.8 µM
NCI-H226 lung
  TGI: 34.8 µM
SNB-19 CNS
  TGI: 79.7 µM
UACC-257 melanoma
  TGI: 26.9 µM
CCRF-CEM leukemia
  TGI: 47.6 µM
IGROV1 ovarian
  TGI: 37.7 µM
UO-31 renal
  TGI: 28.8 µM
SF-268 CNS
  TGI: 39.3 µM
M14 melanoma
  TGI: 35.9 µM
SR leukemia
  TGI: 42.8 µM
LOX IMVI melanoma
  TGI: 67.4 µM
MDA-MB-231 breast
  TGI: 45.6 µM
OVCAR-4 ovarian
  TGI: 48 µM
HL-60(TB) leukemia
  TGI: 26.5 µM
U251 CNS
  TGI: 28.8 µM
NCI-H522 lung
  TGI: 22.9 µM
DU-145 prostate
  TGI: 43.8 µM
COLO 205 colon
  TGI: 41.9 µM
KM12 colon
  TGI: 32.7 µM

Reference: PubChem BioAssay (NCI)
